Patent publication US4584293A, “Aminotetralin derivatives” (Dr. Karl Thomae GmbH, priority 1984, dated 1986)
Counter-ions that a name gives are not always drawn.

Experiments:
Format in all cases: in vivo
heart rate [1] = experiment: Effect on heart rate in rats (anesthetized, i.v.); details: 5.0 mg/kg into jugular vein, pentobarbital-anesthetized rats
Description: The effect of the test substances on heart rate is tested in rats (two) with an average weight of from 250 to 300 g for each dose. The rats are anesthetized with pentobarbital (50 mg/kg i.p. and 20 mg/kg s.c.). The test substances are injected in aqueous solution into the jugular vein (0.1 ml/100 g). The blood pressure is measured using a canula tied into a carotid artery and heart rate was recorded from an ECG (II or III derivation) obtained with needle electrodes. The heart rate of the animals in the control period is between 350 and 400 beats per minute (b/min).

heart rate [2] = experiment: Effect on heart rate in cats (anesthetised, i.v.); details: chloralose-anesthetised cats
Description: The effect of the test substances on heart rate is tested on cats (seven) of both sexes with an average weight of from 2.5 to 3.5 kg for each dose. The cats are anesthetised with chloralose (80 mg/kg). The test substance is injected in aqueous solution into the vena saphena. The heart rate is recorded before and after administration of the substance using a Grass tachograph from the electrocardiogram (electrode attached to the chest wall) on a Grass polygraph.

[3] = Toxic side effects in mice after intravenous administration; details: administered intravenously, 20 mg/kg in mice
Text: The compounds prepared according to the invention have no toxic side effects in therapeutic doses. […] In view of their pharmacological properties the compounds according to the invention are suitable for the treatment of sinus tachycardia of various origins and for the prophylaxis and therapy of ischaemic heart diseases.

Row | Structure (SMILES) | Lowering of heart rate measured 20 minutes after administration of substance (heart rate [1]) [b/min] | Half life (heart rate [2]; 0.3 mg/kg i.v.) [h] | Lowering of heart rate (heart rate [2]; 0.3 mg/kg i.v.) [%] | Half life (heart rate [2]; 1.0 mg/kg i.v.) [h] | Lowering of heart rate (heart rate [2]; 1.0 mg/kg i.v.) [%] | toxic side effects [3]
1 | COc1ccc2c(c1)CCC(N(C)CCCN1CCc3cc(OC)c(OC)cc3CC1=O)C2.Cl (stereo not drawn) [Substance D, 1-[7,8-Dimethoxy-1,3,4,5-tetrahydro-2H-3-benzazepin-2-on-3-yl]-3-[N-methyl-N-(6-methoxy-1,2,3,4-tetrahydronaphth-2-yl)-amino]-propane hydrochloride] | -165 | – | – | – | – | –
2 | COc1cc2c(cc1OC)CC(=O)N(CCCN(C)C1CCc3cc(OC)c(OC)cc3C1)CC2.Cl (stereo not drawn) [Substance A, 1-[7,8-Dimethoxy-1,3,4,5-tetrahydro-2H-3-benzazepin-2-on-3-yl]-3-[N-methyl-N-(6,7-dimethoxy-1,2,3,4-tetrahydronaphth-2-yl)-amino]-propane hydrochloride] | -176 | > 2 | -30 | > 2 | -58 | no toxic side effects apart from slight sedation
3 | COc1cc2c(cc1OC)CC(=O)N(CCCNC1CCc3cc(OC)c(OC)cc3C1)CC2.Cl (stereo not drawn) [Substance B, 1-[7,8-Dimethoxy-1,3,4,5-tetrahydro-2H-3-benzazepin-2-on-3-yl]-3-[N-(6,7-dimethoxy-1,2,3,4-tetrahydronaphth-2-yl)-amino]-propane hydrochloride] | -203 | – | – | > 2 | -55 | no toxic side effects apart from slight sedation
4 | COc1ccc2c(c1)CC(N(C)CCCN1CCc3cc(OC)c(OC)cc3CC1=O)CC2 (stereo not drawn) [Substance C, 1-7,8-Dimethoxy-1,3,4,5-tetrahydro-2H-3-benzazepin-2-on-3-yl]-3-[N-methyl-N-(7-methoxy-1,2,3,4-tetrahydronaphth-2-yl)-amino]-propane hydrochloride] | -184 | – | – | – | – | –
